In PubChem BioAssay AID2060605 (Molecular Pharmacology Branch, DTP, NCI, 2025):
pIC50: −log10 of the molar value. Values joined by “and” are separate entries in the source; they are usually repeats but may differ in a detail not shown here. Identical values can stand only once. Values belong to the compound of their own block, whether it stands above or below them.

System: 947758-054-R-J2-PDC spheroid growth, percent test/control
Experiment: Anticancer human tumor 947758-054-R-J2-PDC patient-derived colon adenocarcinoma cell line growth inhibition [CLK]
Settings: spheroids with HUVEC and MSC; for viability, T/C: stronger effect = lower value
Method in brief: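 Patient-derived tumor cells grown as complex spheroids with HUVEC endothelial cells and mesenchymal stem cells, treated with drug combinations. Concentrations descend in half-log steps from near clinical Cmax, or from 10 microM if Cmax unknown.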
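Also: spheroids exposed to compounds for one week before readout.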
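For viability, T/C in this document: 100% = DMSO vehicle control wells.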

pIC50 (curve of compound): 6.85 and 6.83
Structure (SMILES): NC(=O)C(=Cn1cnc(-c2cc(C(F)(F)F)cc(C(F)(F)F)c2)n1)c1cncnc1
viability, T/C (compound 0.00949 µM): 101% and 94.5%
viability, T/C (compound 0.03 µM): 91% and 92.6%
viability, T/C (compound 0.0949 µM): 59.9% and 62.1%
viability, T/C (compound 0.3 µM): 28.5% and 28.9%
viability, T/C (compound 0.949 µM): 10.5% and 10%
viability, T/C (compound 3 µM): 2.27% and 3.82%

Structure (SMILES): CCCS(=O)(=O)Nc1ccc(F)c(C(=O)c2c[nH]c3ncc(-c4ccc(Cl)cc4)cc23)c1F + CN1CCN(c2cc(C(=O)Nc3cc4cc(-c5cnn(C)c5)ccc4cn3)ccn2)CC1
pIC50 (curve of first compound, second compound 0.0316 µM): < 5.00
pIC50 (curve of first compound, second compound 0.1 µM): 6.04
pIC50 (curve of first compound, second compound 0.316 µM): > 7.50
pIC50 (curve of first compound, second compound 1 µM): > 7.50
pIC50 (curve of first compound, second compound 3.16 µM): > 7.50
pIC50 (curve of first compound, second compound 10 µM): > 7.50
viability, T/C (second compound 0.0316 µM, first compound 0.0316 µM): 99.5%
viability, T/C (second compound 0.0316 µM, first compound 0.1 µM): 99.4%
viability, T/C (second compound 0.0316 µM, first compound 0.316 µM): 79.7%
viability, T/C (second compound 0.0316 µM, first compound 1 µM): 74.3%
viability, T/C (second compound 0.0316 µM, first compound 3.16 µM): 79.6%
viability, T/C (second compound 0.0316 µM, first compound 10 µM): 63.8%
viability, T/C (second compound 0.1 µM, first compound 0.0316 µM): 128%
viability, T/C (second compound 0.1 µM, first compound 0.1 µM): 176%
viability, T/C (second compound 0.1 µM, first compound 0.316 µM): 101%
viability, T/C (second compound 0.1 µM, first compound 1 µM): 50.9%
viability, T/C (second compound 0.1 µM, first compound 3.16 µM): 50.8%
viability, T/C (second compound 0.1 µM, first compound 10 µM): 34.5%
viability, T/C (second compound 0.316 µM, first compound 0.0316 µM): 3.8%
viability, T/C (second compound 0.316 µM, first compound 0.1 µM): 4.14%
viability, T/C (second compound 0.316 µM, first compound 0.316 µM): 4.9%
viability, T/C (second compound 0.316 µM, first compound 1 µM): 4.06%
viability, T/C (second compound 0.316 µM, first compound 3.16 µM): 4.73%
viability, T/C (second compound 0.316 µM, first compound 10 µM): 3.59%
viability, T/C (second compound 1 µM, first compound 0.0316 µM): 0.85%
viability, T/C (second compound 1 µM, first compound 0.1 µM): 1%
viability, T/C (second compound 1 µM, first compound 0.316 µM): 0.17%
viability, T/C (second compound 1 µM, first compound 1 µM): 0.15%
viability, T/C (second compound 1 µM, first compound 3.16 µM): 1.2%
viability, T/C (second compound 1 µM, first compound 10 µM): 0.11%
viability, T/C (second compound 3.16 µM, first compound 0.0316 µM): 0.94%
viability, T/C (second compound 3.16 µM, first compound 0.1 µM): 1.18%
viability, T/C (second compound 3.16 µM, first compound 0.316 µM): 1.32%
viability, T/C (second compound 3.16 µM, first compound 1 µM): 0.16%
viability, T/C (second compound 3.16 µM, first compound 3.16 µM): 0.84%
viability, T/C (second compound 3.16 µM, first compound 10 µM): 1.58%
viability, T/C (second compound 10 µM, first compound 0.0316 µM): 1.3%
viability, T/C (second compound 10 µM, first compound 0.1 µM): 1.75%
viability, T/C (second compound 10 µM, first compound 0.316 µM): 0.41%
viability, T/C (second compound 10 µM, first compound 1 µM): 0.42%
viability, T/C (second compound 10 µM, first compound 3.16 µM): 1.25%
viability, T/C (second compound 10 µM, first compound 10 µM): 0.41%
